Results taken from patent US8030354B2, “Substituted biphenyl GPR40 modulators” (Amgen Inc., priority 2007, dated 2011).

Tests used:
GPR40 [1] = biological target: T1, GPR40 (Homo sapiens, UniProt O14842); experiment: Cell-based aequorin assay (CHO cells stably expressing GPR40 and aequorin); set-up: expressed in transfected cells; host or cells: CHO cells stably transfected with GPR40 and aequorin; settings: activation of human GPR40, CHO cells, 0.01% HSA
Summary of the method: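 CHO cells stably co-expressing GPR40 and aequorin, loaded with coelenterazine (1 ug/mL, 2 h, room temperature) in H/HBSS with 20 mM Hepes and 0.01% fatty acid-free HSA. Serially diluted compounds added; luminescence recorded over 20 s. EC50 from dose-response of maximum relative light units.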

GPR40 [2] = biological target: T1, GPR40; experiment: Inositol phosphate accumulation assay (A9_GPR40 cells); type: cell-based; set-up: expressed in transfected cells; host or cells: CHO cells stably transfected with GPR40 and aequorin; settings: inositol phosphate assay, A9_GPR40 cells, 1 hour; read-out: IP3 EC50
Summary of the method: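 [^3H] inositol phosphate accumulation was measured by SPA after 1 h compound exposure at 37° C in HBSS/10 mM LiCl containing HSA, ending with a 20 mM formic acid quench. The GPR40-transfected A9 cells had first been labelled overnight (16 h) with 1 μCi/mL ^3H-inositol.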

T1 sequence (O14842 whole entry): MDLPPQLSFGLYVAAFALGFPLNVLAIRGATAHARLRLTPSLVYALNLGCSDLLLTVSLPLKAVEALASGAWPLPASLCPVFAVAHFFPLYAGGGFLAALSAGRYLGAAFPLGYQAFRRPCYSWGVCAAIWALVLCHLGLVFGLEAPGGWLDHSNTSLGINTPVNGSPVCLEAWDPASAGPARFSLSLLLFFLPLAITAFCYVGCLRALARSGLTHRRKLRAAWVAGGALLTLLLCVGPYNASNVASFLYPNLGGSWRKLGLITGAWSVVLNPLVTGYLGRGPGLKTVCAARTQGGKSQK

SMILES | EC50 (GPR40 [1]) | EC50 (GPR40 [2])
CCC(CC(=O)O)c1cc(OCc2ccc(-c3cc(OC)ccc3F)c(C3=CCCC3(C)C)c2)ccc1F (single isomer, unassigned) [Example 76.1, (3R)-3-(5-(((2-(5,5-Dimethyl-1-cyclopenten-1-yl)-2′-fluoro-5′-(methyloxy)-1,1′-biphenyl-4-yl)methyl)oxy)-2-fluorophenyl)pentanoic acid or (3S)-3-(5-(((2-(5,5-dimethyl-1-cyclopenten-1-yl)-2′-fluoro-5′-(methyloxy)-1,1′-biphenyl-4-yl)methyl)oxy)-2-fluorophenyl)pentanoic acid] | 100 to 1000 nM | 10 to 100 nM
CCC(CC(=O)O)c1cc(OCc2ccc(-c3cc(OC)ccc3F)c(C3CCCC3(C)C)c2)ccc1F (single isomer, unassigned) [Example 76.3] | 100 to 1000 nM | 10 to 100 nM
CCC(CC(=O)O)c1cccc(OCc2ccc(-c3cc(OC)ccc3F)c(C3=CCCC3(C)C)c2)c1F (single isomer, unassigned) [Example 77.1, (3R)-3-(3-(((2-(5,5-Dimethyl-1-cyclopenten-1-yl)-2′-fluoro-5′-(methyloxy)-1,1′-biphenyl-4-yl)methyl)oxy)-2-fluorophenyl)pentanoic acid or (3S)-3-(3-(((2-(5,5-dimethyl-1-cyclopenten-1-yl)-2′-fluoro-5′-(methyloxy)-1,1′-biphenyl-4-yl)methyl)oxy)-2-fluorophenyl)pentanoic acid] | 100 to 1000 nM | 10 to 100 nM
CCC(CC(=O)O)c1cccc(OCc2ccc(-c3cc(OC)ccc3F)c(C(C)(C)C)c2)c1F (single isomer, unassigned) [Example 77.2, (3R)-3-(3-(((2-(1,1-Dimethylethyl)-2′-fluoro-5′-(methyloxy)-1,1′-biphenyl-4-yl)methyl)oxy)-2-fluorophenyl)pentanoic acid or (3S)-3-(3-(((2-(1,1-dimethylethyl)-2′-fluoro-5′-(methyloxy)-1,1′-biphenyl-4-yl)methyl)oxy)-2-fluorophenyl)pentanoic acid] | 100 to 1000 nM | 100 to 1000 nM
CCC(CC(=O)O)c1cccc(OCc2ccc(-c3cc(OC)ccc3F)c(C(OC)C(C)(C)C)c2)c1F (single isomer, unassigned) [Example 77.4] | 100 to 1000 nM | < 10 nM
CCC(CC(=O)O)c1cccc(OCc2ccc(-c3cc(OC)ccc3F)c(C(C)C(C)(C)C)c2)c1F (single isomer, unassigned) [Example 77.5] | 100 to 1000 nM | < 10 nM
CCC(CC(=O)O)c1cccc(OCc2cc(C3CCCC3(C)C)c(-c3cc(OC)ccc3F)cc2F)c1F (single isomer, unassigned) [Example 77.6] | 100 to 1000 nM | < 10 nM
CC[C@H](CC(=O)O)c1cccc(OCc2ccc(-c3cc(C(F)F)ccc3F)c(C3=CCCC3(C)C)c2)c1F (single isomer, unassigned) [Example 77.7, (3R)-3-(3-(((5′-(Difluoromethyl)-2-(5,5-dimethyl-1-cyclopenten-1-yl)-2′-fluoro-1,1′-biphenyl-4-yl)methyl)oxy)-2-fluorophenyl)pentanoic acid or (3S)-3-(3-(((5′-(difluoromethyl)-2-(5,5-dimethyl-1-cyclopenten-1-yl)-2′-fluoro-1,1′-biphenyl-4-yl)methyl)oxy)-2-fluorophenyl)pentanoic acid] | 1000 to 10000 nM | 100 to 1000 nM
CCC(CC(=O)O)c1cccc(OCc2ccc(-c3cc(OC)ccc3F)c(C3CCCCC3(C)C)c2)c1F (single isomer, unassigned) [Example 77.8] | 100 to 1000 nM | < 10 nM
CCC(CC(=O)O)c1cccc(OCc2ccc(-c3cc(OC)ncc3F)c(C3CCCC3(C)C)c2)c1F (single isomer, unassigned) [Example 77.9] | 100 to 1000 nM | < 10 nM
CCC(CC(=O)O)c1cccc(OCc2ccc(-c3cc(OC)ncc3F)c(C(OC)C(C)(C)C)c2)c1F (single isomer, unassigned) [Example 77.10] | 100 to 1000 nM | < 10 nM
CCC(CC(=O)O)c1cccc(OCc2ccc(-c3cc(OC)ncc3F)c(C(O)(C(C)(C)C)C(C)(C)C)c2)c1F (single isomer, unassigned) [Example 77.11, (3R)-3-(3-(4-(5-Fluoro-2-methoxypyridin-4-yl)-3-(3-hydroxy-2,2,4,4-tetramethylpentan-3-yl)benzyloxy)-2-fluorophenyl)pentanoic acid or (3R)-3-(3-(4-(5-fluoro-2-methoxypyridin-4-yl)-3-(3-hydroxy-2,2,4,4-tetramethylpentan-3-yl)benzyloxy)-2-fluorophenyl)pentanoic acid] | 100 to 1000 nM | < 10 nM
CC[C@H](CC(=O)O)c1cccc(OCc2ccc(-c3cc(OC)ccc3F)c([C@H]3CCCC3(C)C)c2)c1 (single isomer, unassigned) [Example 78.4] | 10 to 100 nM | < 10 nM
CCC(CC(=O)O)c1cccc(OCc2ccc(-c3cccc(OC)c3)c(C3CCCC3(C)C)c2)c1 (single isomer, unassigned) [Example 78.6] | 10 to 100 nM | < 10 nM
CC[C@H](CC(=O)O)c1cccc(OCc2ccc(-c3cc(OC)ccc3F)c(C3CCCCCC3)c2)c1 (single isomer, unassigned) [Example 78.7, (3R)-3-(3-(((2-Cycloheptyl-2′-fluoro-5′-(methyloxy)-1,1′-biphenyl-4-yl)methyl)oxy)phenyl)pentanoic acid or (3S)-3-(3-(((2-cycloheptyl-2′-fluoro-5′-(methyloxy)-1,1′-biphenyl-4-yl)methyl)oxy)phenyl)pentanoic acid] | 100 to 1000 nM | 10 to 100 nM
CC[C@H](CC(=O)O)c1cccc(OCc2ccc(-c3cccc(OC)c3)c(C3CCCCCC3)c2)c1 (single isomer, unassigned) [Example 78.8, (3R)-3-(3-(((2-Cycloheptyl-3′-(methyloxy)-1,1′-biphenyl-4-yl)methyl)oxy)phenyl)pentanoic acid or (3S)-3-(3-(((2-cycloheptyl-3′-(methyloxy)-1,1′-biphenyl-4-yl)methyl)oxy)phenyl)pentanoic acid] | 100 to 1000 nM | 10 to 100 nM
CC[C@H](CC(=O)O)c1cccc(OCc2ccc(-c3cc(Cl)ccc3F)c(C3=CCCC3(C)C)c2)c1 (single isomer, unassigned) [Example 78.9, (3R)-3-(3-(((5′-Chloro-2-(5,5-dimethyl-cyclopenten-1-yl)-2′-fluoro-1,1′-biphenyl-4-yl)methyl)oxy)phenyl)pentanoic acid or (3S)-3-(3-(((5′-chloro-2-(5,5-dimethyl-1-cyclopenten-1-yl)-2′-fluoro-1,1′-biphenyl-4-yl)methyl)oxy)phenyl)pentanoic acid] | 100 to 1000 nM | 10 to 100 nM
CCC(CC(=O)O)c1cccc(OCc2cc(C3CCCC3(C)C)c(-c3cc(OC)ccc3F)cc2F)c1 (single isomer, unassigned) [Example 78.10] | 100 to 1000 nM | < 10 nM
CCC(CC(=O)O)c1cccc(OCc2ccc(-c3cc(OC)ccc3F)c(C3CCCCC3(C)C)c2)c1 (single isomer, unassigned) [Example 78.11] | 10 to 100 nM | < 10 nM
CCC(CC(=O)O)c1cccc(OCc2ccc(-c3cc(OC)ccc3F)c(C(OC)C(C)(C)CC)c2)c1 (single isomer, unassigned) [Example 78.14] | 10 to 100 nM | < 10 nM
COc1ccc(F)c(-c2ccc(COc3cccc(C(CC(=O)O)C4CCC4)c3)cc2C2CCCC2(C)C)c1 (single isomer, unassigned) [Example 79.3] | 100 to 1000 nM | 10 to 100 nM
COc1ccc(F)c(-c2ccc(COc3cccc([C@@H](CC(=O)O)C4CCC4)c3)cc2[C@@H]2CCCC2(C)C)c1 (single isomer, unassigned) [Example 79.4] | 10 to 100 nM | < 10 nM
COc1cccc(-c2ccc(COc3cccc(C(CC(=O)O)C4CCC4)c3)cc2C2CCCC2(C)C)c1 (single isomer, unassigned) [Example 79.6] | 100 to 1000 nM | 10 to 100 nM
COc1ccc(F)c(-c2ccc(COc3cccc(C(CC(=O)O)C4CCC4)c3)cc2C2CCCCCC2)c1 (single isomer, unassigned) [Example 79.7, (3S)-3-(3-(((2-Cycloheptyl-2′-fluoro-5′-(methyloxy)-1,1′-biphenyl-4-yl)methyl)oxy)phenyl)-3-cyclobutylpropanoic acid or (3R)-3-(3-(((2-cycloheptyl-2′-fluoro-5′-(methyloxy)-1,1′-biphenyl-4-yl)methyl)oxy)phenyl)-3-cyclobutylpropanoic acid] | 100 to 1000 nM | 10 to 100 nM
COc1cccc(-c2ccc(COc3cccc(C(CC(=O)O)C4CCC4)c3)cc2C2CCCCCC2)c1 (single isomer, unassigned) [Example 79.8, (3S)-3-(3-(((2-Cycloheptyl-3′-(methyloxy)-1,1′-biphenyl-4-yl)methyl)oxy)phenyl)-3-cyclobutylpropanoic acid or (3R)-3-(3-(((2-cycloheptyl-3′-(methyloxy)-1,1′-biphenyl-4-yl)methyl)oxy)phenyl)-3-cyclobutylpropanoic acid] | 100 to 1000 nM | 10 to 100 nM
CCC[C@H](CC(=O)O)c1cccc(OCc2ccc(-c3cc(OC)ccc3F)c([C@H]3CCCC3(C)C)c2)c1 (single isomer, unassigned) [Example 80.4] | 100 to 1000 nM | < 10 nM
CCCC(CC(=O)O)c1cccc(OCc2ccc(-c3cccc(OC)c3)c(C3CCCC3(C)C)c2)c1 (single isomer, unassigned) [Example 80.6] | 100 to 1000 nM | < 10 nM
